Key:
Assay in all cases: relative viability (nuclei count vs DMSO), 5 days (fraction); higher = more cells survive
VE-821 = compound: CS(=O)(=O)c1ccc(-c2cnc(N)c(C(=O)Nc3ccccc3)n2)cc1 [VE-821]
In short: (§1)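 Five library-drug doses, separated by factors of √10, were pinned into 1536-well plates holding lung cancer cell lines after an overnight stay at 37 °C. Cells were fixed, permeabilised and Hoechst-stained in one step after 5 days without medium change, then imaged at 4×. Viability compares treated-well with vehicle-well nuclei, counted in MetaXpress, as a median across plates. Passing plates had control CV below 25% and at least one doubling.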

Vismodegib = compound: CS(=O)(=O)c1ccc(C(=O)Nc2ccc(Cl)c(-c3ccccn3)c2)c(Cl)c1 [Vismodegib]
In short: as §1

Ruxolitinib = compound: N#CC[C@H](C1CCCC1)n1cc(-c2ncnc3[nH]ccc23)cn1 [Ruxolitinib]
In short: as §1

Cell Line | relative viability (VE-821; 0.08 µM) | relative viability (VE-821; 0.253 µM) | relative viability (VE-821; 0.8 µM) | relative viability (VE-821; 2.53 µM) | relative viability (VE-821; 8 µM) | relative viability (Vismodegib; 0.08 µM) | relative viability (Vismodegib; 0.253 µM) | relative viability (Vismodegib; 0.8 µM) | relative viability (Vismodegib; 2.53 µM) | relative viability (Vismodegib; 8 µM) | relative viability (Ruxolitinib; 0.08 µM) | relative viability (Ruxolitinib; 0.253 µM) | relative viability (Ruxolitinib; 0.8 µM) | relative viability (Ruxolitinib; 2.53 µM) | relative viability (Ruxolitinib; 8 µM)
LC-2-ad | 1.07 | 0.978 | 1.05 | 1.12 | 0.995 | 1 | 0.952 | 0.939 | 0.929 | 0.907 | 0.779 | 0.971 | 1.01 | 0.842 | 0.665
LCLC-97TM1 | 1 | 0.964 | 0.969 | 1.13 | 0.703 | 1 | 0.984 | 0.904 | 0.802 | 0.979 | 0.895 | 0.852 | 0.826 | 0.892 | 0.949
LCLC-103H | 1.07 | 0.915 | 0.952 | 1.21 | 0.891 | 0.967 | 1.04 | 0.92 | 1.01 | 1.02 | 1.04 | 1.01 | 0.993 | 1.05 | 0.956
LK-2 | 1.26 | 0.911 | 0.993 | 1.02 | 0.881 | 1 | 0.842 | 0.861 | 1.02 | 0.899 | 0.928 | 0.949 | 1.13 | 1.02 | 1.09
LOU-NH91 | 1.03 | 0.946 | 0.927 | 1.03 | 0.865 | 0.918 | 0.963 | 0.946 | 0.908 | 0.958 | 0.847 | 0.957 | 1.03 | 0.933 | 0.99
LU99A | 0.987 | 1.01 | 0.962 | 0.998 | 0.464 | 0.989 | 0.899 | 0.964 | 0.819 | 0.922 | 1.06 | 0.997 | 1.08 | 0.816 | 0.777
LXF-289 | 1.06 | 1.1 | 1.09 | 1.06 | 1.14 | 1.02 | 0.989 | 1.03 | 0.988 | 0.902 | 0.965 | 0.996 | 0.938 | 0.944 | 0.919
NCI-H23 | 1.03 | 0.888 | 0.983 | 0.818 | 0.319 | 1.05 | 0.931 | 0.886 | 0.926 | 0.773 | 1.04 | 1.01 | 0.995 | 0.84 | 0.772
NCI-H322M | 0.96 | 0.912 | 0.96 | 0.864 | 0.371 | 0.912 | 0.896 | 0.932 | 0.868 | 0.88 | 0.934 | 0.962 | 1.04 | 1.27 | 1.36
NCI-H358 | 1.05 | 0.964 | 0.936 | 1.08 | 0.803 | 0.945 | 0.989 | 0.973 | 0.911 | 0.921 | 0.848 | 0.921 | 0.889 | 0.537 | 0.63
NCI-H441 | 1.16 | 1.1 | 1.34 | 1.34 | 0.793 | 1.02 | 0.909 | 1.01 | 0.98 | 1.04 | 0.946 | 0.933 | 1.16 | 0.962 | 0.699
NCI-H460 | 1.05 | 0.983 | 0.947 | 0.82 | 0.56 | 1.01 | 0.979 | 1 | 0.981 | 1.03 | 1.03 | 1.06 | 1.07 | 1 | 0.96
NCI-H520 | 1.05 | 0.992 | 0.723 | 1.06 | 0.67 | 0.922 | 0.885 | 0.927 | 0.875 | 1.11 | 1.07 | 0.749 | 1.2 | 0.934 | 0.951
NCI-H522 | 0.974 | 0.938 | 0.934 | 1.06 | 0.849 | 0.973 | 0.876 | 0.957 | 1 | 1.01 | 1.01 | 0.95 | 1.01 | 0.895 | 0.874
NCI-H596 | 0.984 | 0.907 | 0.972 | 0.975 | 1 | 0.986 | 1.02 | 0.898 | 0.932 | 0.952 | 1.09 | 0.98 | 1.12 | 1.09 | 1.07
NCI-H647 | 1.11 | 0.9 | 0.798 | 0.987 | 0.506 | 0.913 | 0.863 | 0.978 | 0.964 | 1.14 | 0.81 | 0.962 | 1.04 | 0.897 | 0.836
NCI-H650 | 1.04 | 0.909 | 1.05 | 1.1 | 0.895 | 0.953 | 0.895 | 0.88 | 0.915 | 0.815 | – | 0.937 | 1.01 | 0.854 | 0.696
NCI-H661 | 0.986 | 0.998 | 0.976 | 0.997 | 0.919 | 0.973 | 0.975 | 0.997 | 0.909 | 1.02 | 0.958 | 0.963 | 1.04 | 1.03 | 0.92
NCI-H727 | 0.894 | 0.884 | 0.958 | 0.911 | 0.446 | 0.891 | 0.931 | 0.804 | 0.988 | 0.81 | 0.934 | 1.02 | 1.11 | 0.904 | 1.36
NCI-H838 | 1.06 | 0.887 | 0.902 | 1.01 | 0.791 | 0.906 | 0.893 | 0.941 | 0.947 | 0.973 | 0.918 | 0.897 | 0.832 | 0.567 | 0.478
NCI-H1299 | 1.02 | 0.971 | 0.987 | 0.997 | 0.941 | 1.04 | 0.973 | 1.02 | 1.03 | 1.02 | 1.04 | 1.01 | 1.01 | 0.974 | 0.866
NCI-H1355 | 1.05 | 0.919 | 0.963 | 1.04 | 0.604 | 0.947 | 0.992 | 0.904 | 0.99 | 0.93 | 1.07 | 0.962 | 0.957 | 0.922 | 0.918
NCI-H1395 | 0.963 | 0.89 | 0.792 | 0.888 | 0.665 | 0.834 | 0.878 | 0.853 | 0.829 | 1 | 0.816 | 0.767 | 1.02 | 0.913 | 0.771
